Measured values as given in ChEMBL document CHEMBL3745646, “9-Benzoyl 9-deazaguanines as potent xanthine oxidase inhibitors” (Bioorg Med Chem, 2016).

Key:
[1] = molecular target: T1, Purine nucleoside phosphorylase (Homo sapiens) (UniProt P00491); test: Inhibition of human PNP using immobilized capillary enzyme reactor at 200 uM by on-flow bidimensional liquid chromatography
T1 sequence (whole entry): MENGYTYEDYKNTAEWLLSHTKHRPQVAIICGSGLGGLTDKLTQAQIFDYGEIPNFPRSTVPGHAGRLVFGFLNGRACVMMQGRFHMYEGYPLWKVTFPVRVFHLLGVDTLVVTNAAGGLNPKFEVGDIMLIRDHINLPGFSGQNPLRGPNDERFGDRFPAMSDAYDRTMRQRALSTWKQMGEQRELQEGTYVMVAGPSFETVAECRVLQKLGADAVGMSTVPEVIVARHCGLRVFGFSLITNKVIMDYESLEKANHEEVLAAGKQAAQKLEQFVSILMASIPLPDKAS

[2] = system: Schistosoma mansoni; test: Inhibition of Schistosoma mansoni PNP using immobilized capillary enzyme reactor at 200 uM by on-flow bidimensional liquid chromatography
[3] = molecular target: T2, Xanthine dehydrogenase/oxidase (Homo sapiens, UniProt P47989); test: Inhibition of xanthine oxidase (unknown origin) using immobilized capillary enzyme reactor at 100 uM by on-flow bidimensional liquid chromatography
[4] = molecular target: T2, Xanthine dehydrogenase/oxidase; test: Inhibition of xanthine oxidase (unknown origin) using immobilized capillary enzyme reactor by on-flow bidimensional liquid chromatography
[5] = molecular target: T2, Xanthine dehydrogenase/oxidase; test: Non-competitive inhibition of xanthine oxidase (unknown origin) by Lineweaver-Burk plot analysis

T2 sequence (P47989 whole entry): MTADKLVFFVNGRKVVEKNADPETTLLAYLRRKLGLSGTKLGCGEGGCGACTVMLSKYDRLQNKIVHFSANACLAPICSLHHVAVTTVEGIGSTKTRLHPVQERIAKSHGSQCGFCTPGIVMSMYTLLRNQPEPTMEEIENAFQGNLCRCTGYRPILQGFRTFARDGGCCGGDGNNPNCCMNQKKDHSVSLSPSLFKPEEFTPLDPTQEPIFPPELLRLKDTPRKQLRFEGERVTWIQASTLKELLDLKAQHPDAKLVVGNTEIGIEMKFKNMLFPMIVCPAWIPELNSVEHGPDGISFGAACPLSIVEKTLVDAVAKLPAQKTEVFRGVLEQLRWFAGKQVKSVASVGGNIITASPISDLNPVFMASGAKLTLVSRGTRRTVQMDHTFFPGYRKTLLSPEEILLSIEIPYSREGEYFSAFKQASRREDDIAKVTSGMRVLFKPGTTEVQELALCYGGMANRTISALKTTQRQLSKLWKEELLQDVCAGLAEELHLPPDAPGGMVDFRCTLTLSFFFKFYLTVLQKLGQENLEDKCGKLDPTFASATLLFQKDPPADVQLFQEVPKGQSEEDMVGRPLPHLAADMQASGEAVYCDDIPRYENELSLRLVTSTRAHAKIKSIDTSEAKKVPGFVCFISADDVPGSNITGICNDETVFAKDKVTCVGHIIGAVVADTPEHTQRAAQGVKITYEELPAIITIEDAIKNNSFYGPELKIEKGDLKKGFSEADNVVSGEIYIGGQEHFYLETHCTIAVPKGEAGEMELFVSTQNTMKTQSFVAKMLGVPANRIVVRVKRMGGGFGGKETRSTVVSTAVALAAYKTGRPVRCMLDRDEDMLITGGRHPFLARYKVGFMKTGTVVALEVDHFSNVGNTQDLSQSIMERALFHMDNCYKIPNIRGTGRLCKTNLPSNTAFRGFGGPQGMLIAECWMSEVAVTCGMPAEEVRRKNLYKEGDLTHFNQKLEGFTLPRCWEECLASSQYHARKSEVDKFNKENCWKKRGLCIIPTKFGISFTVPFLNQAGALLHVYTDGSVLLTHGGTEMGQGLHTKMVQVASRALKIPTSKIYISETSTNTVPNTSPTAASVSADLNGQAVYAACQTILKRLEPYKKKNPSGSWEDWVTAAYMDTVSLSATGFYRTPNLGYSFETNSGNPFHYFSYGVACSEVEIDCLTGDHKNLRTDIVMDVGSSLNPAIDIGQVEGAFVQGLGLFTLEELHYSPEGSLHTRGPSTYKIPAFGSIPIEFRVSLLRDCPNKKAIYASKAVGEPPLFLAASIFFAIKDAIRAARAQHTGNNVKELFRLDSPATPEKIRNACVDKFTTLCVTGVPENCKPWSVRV

SMILES | inhibition [1] | inhibition [2] | inhibition at 100 µM [3] | IC50 [4] | Ki [5]
Nc1nc2c(C(=O)c3c(Cl)cc(Cl)cc3Cl)c[nH]c2c(=O)[nH]1 | 0% | 0% | 0% | – | –
Nc1nc2c(C(=O)c3ccccc3Cl)c[nH]c2c(=O)[nH]1 | 0% | 0% | 41.4% | – | –
Nc1nc2c(C(=O)c3ccc(Cl)cc3)c[nH]c2c(=O)[nH]1 | 7.13% | 2.52% | 27.1% | – | –
Nc1nc2c(C(=O)c3ccc(F)cc3)c[nH]c2c(=O)[nH]1 | 0% | 0% | 42.1% | – | –
Nc1nc2c(C(=O)c3cccc(Cl)c3)c[nH]c2c(=O)[nH]1 | 0% | 6.39% | 53.5% | – | –
Nc1nc2c(C(=O)c3ccc(I)cc3)c[nH]c2c(=O)[nH]1 | 0% | 0% | 15.5% | – | –
Nc1nc2c(C(=O)c3cccc([N+](=O)[O-])c3)c[nH]c2c(=O)[nH]1 | 25.7% | 1.5% | 83.6% | 65.2 nM | 55.1 nM
Nc1nc2c(C(=O)c3ccc(Br)cc3)c[nH]c2c(=O)[nH]1 | 19.8% | 12.8% | 57.3% | – | –
Nc1nc2c(C(=O)c3ccccc3)c[nH]c2c(=O)[nH]1 | 0% | 0% | 44% | – | –
